Results on 26 compounds are retold here after patent US10501449B2 (priority 2018, dated 2019).

pIC50: −log10 of the molar value.

The target of data set [1] is hROMK (human Kir1.1) (Homo sapiens (Human), UniProt P48048). Kind of data set: cell-based. Conditions: CHO T-Rex hROMK stable cell line; thallium flux; 10-point concentration response curve; read-out: Human ROMK Th Flux IC50.
The target in data set [2] is hERG channels (Homo sapiens (Human), UniProt Q12809). Kind of data set: hERG Manual Patch Clamp Assay. In kind it is cell-based. Particulars: human, HEK 293 cells stably expressing hERG channels, pH 7.4, 1 uM, read-out: hERG EP % Inh @ 1 uM. (The hERG channel carries a current that helps repolarise heart muscle cells.)
Chain of hERG channels (Q12809 whole entry): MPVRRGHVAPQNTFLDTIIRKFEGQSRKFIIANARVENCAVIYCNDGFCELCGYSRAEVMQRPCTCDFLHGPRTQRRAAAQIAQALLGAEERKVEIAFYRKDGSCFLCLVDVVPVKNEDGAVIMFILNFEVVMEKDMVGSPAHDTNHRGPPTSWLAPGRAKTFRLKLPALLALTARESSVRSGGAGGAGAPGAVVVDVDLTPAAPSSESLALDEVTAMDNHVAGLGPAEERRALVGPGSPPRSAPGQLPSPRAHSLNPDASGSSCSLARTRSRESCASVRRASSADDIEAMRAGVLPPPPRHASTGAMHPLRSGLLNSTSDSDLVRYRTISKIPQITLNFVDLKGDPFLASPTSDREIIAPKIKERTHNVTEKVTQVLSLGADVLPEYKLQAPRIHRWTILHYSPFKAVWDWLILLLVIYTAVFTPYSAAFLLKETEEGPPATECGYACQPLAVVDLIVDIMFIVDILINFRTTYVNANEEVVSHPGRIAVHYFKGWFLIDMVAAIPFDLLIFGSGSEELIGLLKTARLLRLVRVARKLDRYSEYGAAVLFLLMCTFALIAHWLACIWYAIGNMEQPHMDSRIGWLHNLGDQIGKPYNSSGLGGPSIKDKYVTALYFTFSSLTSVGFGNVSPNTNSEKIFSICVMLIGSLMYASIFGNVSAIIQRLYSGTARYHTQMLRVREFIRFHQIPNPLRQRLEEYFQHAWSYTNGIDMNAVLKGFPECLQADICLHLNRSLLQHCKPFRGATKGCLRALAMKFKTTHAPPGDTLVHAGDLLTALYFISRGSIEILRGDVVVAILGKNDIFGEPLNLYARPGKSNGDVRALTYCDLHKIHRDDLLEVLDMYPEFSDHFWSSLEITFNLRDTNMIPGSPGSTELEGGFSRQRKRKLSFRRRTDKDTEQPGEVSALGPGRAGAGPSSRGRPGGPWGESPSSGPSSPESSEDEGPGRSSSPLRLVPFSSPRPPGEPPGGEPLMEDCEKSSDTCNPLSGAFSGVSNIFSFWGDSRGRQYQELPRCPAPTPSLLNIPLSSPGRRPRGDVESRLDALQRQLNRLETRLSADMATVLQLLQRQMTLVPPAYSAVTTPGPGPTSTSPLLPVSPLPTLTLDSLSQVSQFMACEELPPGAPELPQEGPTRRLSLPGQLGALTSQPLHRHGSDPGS
Procedure: hERG electrophysiology assay: The experimental compounds were assessed for hERG activity on HEK 293 cells stably expressing hERG channels using patch clamp technique. Coverslips plated with hERG expressing cells were placed in the experimental chamber and were perfused with a solution composed of (in mM): 140 NaCl, 4 KCl, 1.8 CaCl2, 1 MgCl2, 10 Glucose, 10 HEPES (pH 7.4, NaOH) at room temperature. Borosilicate patch pipettes had tip resistances of 2-4 Mohms when filled with an internal solution containing: 130 KCl, 1 MgCl2, 1 CaCl2, 10 EGTA, 10 HEPES, 5 ATP-K2 (pH 7.2, KOH). The cells were clamped at −80 mV in whole cell configuration using an Axopatch 200B (Axon instruments, Union City, Calif.) patch clamp amplifier controlled by pClamp (Axon instruments) software. Upon formation of a gigaseal, the following voltage protocol was repeatedly (0.05 Hz) applied to record tail currents: depolarization step from −80 mV to +20 mV for 2 seconds followed by a hyperpolarization step to −65 mV (3 seconds) to elicit tail currents. Compounds were applied after stabilization of tail current. First, tail currents were recorded in presence of extracellular solution alone (control) and subsequently, in extracellular solution containing increasing compound concentrations. Each compound concentration was applied for 2-5 minutes. The percentage inhibition at each concentration was calculated as reduction in peak tail current with respect to the peak tail current recorded in the presence of control solution. Data analysis was performed in a custom made template. The percent inhibitions at different concentrations were plotted to obtain a concentration response curve, which was subsequently fitted with a four parameter equation to calculate hERG IC50 value.

Chain of hROMK (human Kir1.1) (P48048 whole entry): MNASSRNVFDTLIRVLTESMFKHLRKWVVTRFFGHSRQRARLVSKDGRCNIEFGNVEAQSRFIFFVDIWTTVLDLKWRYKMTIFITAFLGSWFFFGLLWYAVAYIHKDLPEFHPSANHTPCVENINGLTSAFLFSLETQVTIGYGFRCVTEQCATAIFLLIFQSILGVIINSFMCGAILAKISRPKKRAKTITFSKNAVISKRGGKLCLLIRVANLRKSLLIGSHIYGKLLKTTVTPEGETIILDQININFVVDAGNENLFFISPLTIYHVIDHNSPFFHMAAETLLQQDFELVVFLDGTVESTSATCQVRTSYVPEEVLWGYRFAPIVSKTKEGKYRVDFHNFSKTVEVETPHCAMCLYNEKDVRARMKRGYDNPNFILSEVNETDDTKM

A word on the pIC50: it is the IC50 on a negative log10 scale, so that one unit is a factor of ten. With `Cc1c([C@@H]2CN(Cc3cnn(-c4ccn(C(F)F)c(=O)c4)c3)C[C@H](C)N2)ccc2c1COC2=O` [Example 129-I, 1-(difluoromethyl)-4-(4-(((3S,5R)-3-methyl-5-(4-methyl-1-oxo-1,3-dihydroisobenzofuran-5-yl)piperazin-1-yl)methyl)-1H-pyrazol-1-yl)pyridin-2(1H)-one], the pIC50 in data set [1] is 7.59. Further, the inhibition at 1 µM in data set [2] came to 32%.

With `Cc1c([C@@H]2CN(Cc3cn(-c4ccc(C(F)F)nc4)cn3)C[C@H](C)N2)ccc2c1COC2=O` [Example 134-I, 5-((2R,6S)-4-((1-(6-(difluoromethyl)pyridin-3-yl)-1H-imidazol-4-yl)methyl)-6-methylpiperazin-2-yl)-4-methylisobenzofuran-1(3H)-one], the pIC50 in data set [1] is 7.37. For the same compound, in data set [2], the inhibition at 1 µM is 22%.

Take `Cc1c([C@@H]2CN(Cc3ccc(-n4ccc(C#N)n4)nc3)CCN2)ccc2c1COC2=O` [Example 136-I, (R)-1-(5-((3-(4-methyl-1-oxo-1,3-dihydroisobenzofuran-5-yl)piperazin-1-yl)methyl)pyridin-2-yl)-1H-pyrazole-3-carbonitrile]: in data set [1], the pIC50 is 7.55. For the same compound, in data set [2], the inhibition at 1 µM was determined as 29%.

Consider `CCOc1cc(-n2cc(CN3CCN[C@H](c4ccc5c(c4C)COC5=O)C3)cn2)ncc1C#N` [Example 137-I, (R)-4-ethoxy-6-(4-((3-(4-methyl-1-oxo-1,3-dihydroisobenzofuran-5-yl)piperazin-1-yl)methyl)-1H-pyrazol-1-yl)nicotinonitrile], for which the pIC50 in data set [1] was 7.59. Besides, the inhibition at 1 µM in data set [2] turned out to be 23%.

Take `Cc1c([C@@H]2CN(Cc3cnn(-c4cc(OC(C)C)c(C#N)cn4)c3)CCN2)ccc2c1COC2=O` [Example 140-I, (R)-4-isopropoxy-6-(4-((3-(4-methyl-1-oxo-1,3-dihydroisobenzofuran-5-yl)piperazin-1-yl)methyl)-1H-pyrazol-1-yl)nicotinonitrile]: the pIC50 in data set [1] was 7.59. Besides, in data set [2], the inhibition at 1 µM worked out at 49%.

In the case of `Cc1cn(-c2cc(C)c(CN3CCN[C@H](c4ccc5c(c4C)COC5=O)C3)cn2)cn1` [Example 141-I, (R)-4-methyl-5-(4-((4-methyl-6-(4-methyl-1H-imidazol-1-yl)pyridin-3-yl)methyl)piperazin-2-yl)isobenzofuran-1(3H)-one], in data set [1], the pIC50 is 7.16. Moreover, in data set [2], the inhibition at 1 µM came out at 7.1%.

In the case of `Cc1cn(-c2ccc(CN3CCN[C@H](c4ccc5c(c4C)COC5=O)C3)c(C)n2)cn1` [Example 142-I, (R)-4-methyl-5-(4-((2-methyl-6-(4-methyl-1H-imidazol-1-yl)pyridin-3-yl)methyl)piperazin-2-yl)isobenzofuran-1(3H)-one], in data set [1], the pIC50 is 7.12. Besides, the inhibition at 1 µM in data set [2] was 8.5%.

For the compound `COc1cc(-c2ccc(CN3CCN[C@H](c4ccc5c(c4C)COC5=O)C3)c(OC)n2)ncc1C#N` [Example 143-I, (R)-4,6′-dimethoxy-5′-((3-(4-methyl-1-oxo-1,3-dihydroisobenzofuran-5-yl)piperazin-1-yl)methyl)-[2,2′-bipyridine]-5-carbonitrile], in data set [1], the negative logarithm of the IC50 (pIC50) is 7.20. Moreover, in data set [2], the inhibition at 1 µM worked out at 49%.

For the compound `Cc1cn(-c2ncc(CN3CCN[C@H](c4ccc5c(c4C)COC5=O)C3)cc2F)cn1` [Example 144-I, (R)-5-(4-((5-fluoro-6-(4-mehtyl-1H-imidazol-1-yl)pyridin-3-yl)methyl)piperazin-2-yl)-4-methylisobenzofuran-1(3H)-one], the negative-log IC50 (pIC50) in data set [1] was 7.62. The inhibition at 1 µM in data set [2] came to 7.8%.

As to `Cc1cc(-n2cc(CN3CCN[C@H](c4ccc5c(c4C)COC5=O)C3)c(C)n2)ncc1C#N` [Example 145-I, (R)-4-methyl-6-(3-methyl-4-((3-(4-methyl-1-oxo-1,3-dihydroisobenzofuran-5-yl)piperazin-1-yl)methyl)-1H-pyrazol-1-yl)nicotinonitrile], in data set [1], the pIC50 is 7.82. In addition, in data set [2], the inhibition at 1 µM amounted to 25%.

In the case of `Cc1cc(-n2ncc(CN3CCN[C@H](c4ccc5c(c4C)COC5=O)C3)c2C)ncc1C#N` [Example 146-I, (R)-4-methyl-6-(5-methyl-4-((3-(4-methyl-1-oxo-1,3-dihydroisobenzofuran-5-yl)piperazin-1-yl)methyl)-1H-pyrazol-1-yl)nicotinonitrile], the pIC50 in data set [1] is 7.60. In addition, in data set [2], the inhibition at 1 µM came out at 16%.

For the compound `COc1cc(-n2cnc(C)c2)ncc1CN1CCN[C@H](c2ccc3c(c2C)COC3=O)C1` [Example 149-I, (R)-5-(4-((4-methoxy-6-(4-methyl-1H-imidazol-1-yl)pyridin-3-yl)methyl)piperazin-2-yl)-4-methylisobenzofuran-1(3H)-one], the pIC50 in data set [1] is 7.28. The inhibition at 1 µM in data set [2] turned out to be 7.6%.

Turning to `Cc1ncn(-c2ncc(CN3CCN[C@H](c4ccc5c(c4C)COC5=O)C3)cn2)c1C(F)F` [Example 150-I, (R)-5-(4-((2-(5-(difluoromethyl)-4-methyl-1H-imidazol-1-yl)pyrimidin-5-yl)methyl)piperazin-2-yl)-4-methylisobenzofuran-1(3H)-one], the pIC50 in data set [1] is 7.00. For the same compound, the inhibition at 1 µM in data set [2] stood at 14%.

As for `COc1cc(N2CC(CN3CCN[C@H](c4ccc5c(c4C)COC5=O)C3)CC2=O)ncc1C#N` (stereo partly drawn) [Example 159-I, 4-methoxy-6-(4-(((R)-3-(4-methyl-1-oxo-1,3-dihydroisobenzofuran-5-yl)piperazin-1-yl)methyl)-2-oxopyrrolidin-1-yl)nicotinonitrile], the negative logarithm of the IC50 (pIC50) in data set [1] was 7.80. In addition, the inhibition at 1 µM in data set [2] was 21%.

Take `Cc1cc(-n2cnc(CN3CC[C@@H](O)[C@H](c4ccc5c(c4C)COC5=O)C3)c2)ncc1C#N` [Example 163-I, 6-(4-(((3R,4R)-4-hydroxy-3-(4-methyl-1-oxo-1,3-dihydroisobenzofuran-5-yl)piperidin-1-yl)methyl)-1H-imidazol-1-yl)-4-methylnicotinonitrile]: in data set [1], the pIC50 was 7.54. The inhibition at 1 µM in data set [2] turned out to be 4.5%.

With `Cc1c([C@@H]2CN(Cc3cnn(-c4cc(N5CCOC5=O)ccn4)c3)CCN2)ccc2c1COC2=O` [Example 185-I, (R)-3-(2-(4-((3-(4-methyl-1-oxo-1,3-dihydroisobenzofuran-5-yl)piperazin-1-yl)methyl)-1H-pyrazol-1-yl)pyridin-4-yl)oxazolidin-2-one], in data set [1], the pIC50 is 7.00. In addition, the inhibition at 1 µM in data set [2] amounted to 9.6%.

Regarding `COc1cc(-n2cc(CCN3C[C@@H](c4ccc5c(c4C)COC5=O)N[C@@H](C)C3)cn2)ncc1C#N` [Example 192-I, 4-methoxy-6-(4-(2-((3S,5R)-3-methyl-5-(4-methyl-1-oxo-1,3-dihydroisobenzofuran-5-yl)piperazin-1-yl)ethyl)-1H-pyrazol-1-yl)nicotinonitrile], in data set [1], the pIC50 was 7.80. The inhibition at 1 µM in data set [2] worked out at 46%.

With `COc1ncnc(-n2cc(CN3C[C@@H](c4ccc5c(c4C)COC5=O)N[C@@H](C)C3)cn2)n1` [Example 194-I, 5-((2R,6S)-4-((1-(4-methoxy-1,3,5-triazin-2-yl)-1H-pyrazol-4-yl)methyl)-6-methylpiperazin-2-yl)-4-methylisobenzofuran-1(3H)-one], in data set [1], the pIC50 was 7.22. Moreover, the inhibition at 1 µM in data set [2] was 11%.

As to `Cc1c([C@@H]2CN(Cc3cnn(-c4cc(C#N)ccn4)c3)CCN2)ccc2c1COC2=O` [Example 198-I, (R)-2-(4-((3-(4-methyl-1-oxo-1,3-dihydroisobenzofuran-5-yl)piperazin-1-yl)methyl)-1H-pyraozl-1-yl)isonicotinonitrile], in data set [1], the negative logarithm of the IC50 (pIC50) was 7.08. For the same compound, the inhibition at 1 µM in data set [2] came to 0%.

Turning to `Cc1cc(-c2cc(CN3C[C@@H](c4ccc5c(c4C)COC5=O)N[C@@H](C)C3)on2)ncc1C#N` [Example 214-I, 4-methyl-6-(5-(((3S,5R)-3-methyl-5-(4-methyl-1-oxo-1,3-dihydroisobenzofuran-5-yl)piperazin-1-yl)methyl)isoxazol-3-yl)nicotinonitrile], the pIC50 in data set [1] was 8.18. For the same compound, the inhibition at 1 µM in data set [2] was 22%.

Regarding `Cc1c([C@@H]2CN(Cc3cnc(-n4cnc(C#N)c4)nc3)CCN2)ccc2c1COC2=O` [Example 215-I], in data set [1], the pIC50 is 7.96. For the same compound, the inhibition at 1 µM in data set [2] is 29%.

Regarding `Cc1c([C@@H]2CN(Cc3cnc(-n4cnc(C#N)n4)nc3)CCN2)ccc2c1COC2=O` [Example 217-I, (R)-1-(5-((3-(4-methyl-1-oxo-1,3-dihydroisobenzofuran-5-yl)piperazin-1-yl)methyl)pyrimidin-2-yl)-1H-1,2,4-triazole-3-carbonitrile], the pIC50 in data set [1] was 7.62. Also, the inhibition at 1 µM in data set [2] came out at 16%.

Turning to `Cc1c([C@@H]2CN(Cc3cnc(-n4cc(C#N)c(C5CC5)n4)nc3)CCN2)ccc2c1COC2=O` [Example 218-I, (R)-3-cyclopropyl-1-(5-((3-(4-methyl-1-oxo-1,3-dihydroisobenzofuran-5-yl)piperazin-1-yl)methyl)pyrimidin-2-yl)-1H-pyrazole-4-carbonitrile], the pIC50 in data set [1] was 7.48. The inhibition at 1 µM in data set [2] was 39%.

Take `Cc1c([C@@H]2CN(Cc3ccc(-n4cc(C#N)c(OC(F)F)n4)nc3)CCN2)ccc2c1COC2=O` [Example 219-I, (R)-3-(difluoromethoxy)-1-(5-((3-(4-methyl-1-oxo-1,3-dihydroisobenzofuran-5-yl)piperazin-1-yl)methyl)pyridin-2-yl)-1H-pyrazole-4-carbonitrile]: in data set [1], the pIC50 is 7.68. Besides, the inhibition at 1 µM in data set [2] was determined as 75%.

With `Cc1c([C@@H]2CN(Cc3cnn(-c4cc(N5CCOCC5)c(C#N)cn4)c3)CCN2)ccc2c1COC2=O` [Example 220-I, (R)-6-(4-((3-(4-methyl-1-oxo-1,3-dihydroisobenzofuran-5-yl)piperazin-1-yl)methyl)-1H-pyrazol-1-yl)-4-morpholinonicotinonitrile], in data set [1], the pIC50 is 7.54. Moreover, the inhibition at 1 µM in data set [2] is 30%.

For the compound `Cc1cn(-c2ccc(CN3CCN[C@H](c4ccc5c(c4C)COC5=O)C3)cn2)nn1` [Example 222-I, (R)-4-methyl-5-(4-((6-(4-methyl-1H-1,2,3-triazol-1-yl)pyridin-3-yl)methyl)piperazin-2-yl)isobenzofuran-1(3H)-one], the pIC50 in data set [1] was 7.22. The inhibition at 1 µM in data set [2] was 12%.
